Test results as given in the supplement of paper PMC10307832.

Key:
Test in all cases: relative viability (nuclei count vs DMSO), 5 days (fraction); higher = more cells survive
[1] = test system: ABC-1
Summary of the method: (§1)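 Cells from lung cancer lines were seeded into 1536-well plates and, one day later, dosed by pin tool. Treatments were either a single drug or a fixed dose of an anchor drug with five library-drug doses (not always all listed) in √10 steps. After 5 days, nuclei were stained in a one-step fixation (final 0.05% Triton X-100, 1% formaldehyde, 1 ug/ml Hoechst) and counted on 4× images, and relative viability is the treated-to-vehicle nuclei ratio, as the median of duplicate plates.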

[2] = test system: CAL-12T
Summary of the method: as §1

[3] = test system: COR-L 105
Summary of the method: as §1

[4] = test system: ChaGo-K-1
Summary of the method: as §1

[5] = test system: EMC-BAC-2
Summary of the method: as §1

[6] = test system: EPLC-272H
Summary of the method: as §1

[7] = test system: HCC-15
Summary of the method: as §1

[8] = test system: HCC-78
Summary of the method: as §1

[9] = test system: HOP-62
Summary of the method: as §1

[10] = test system: LXF-289
Summary of the method: as §1

[11] = test system: NCI-H1666
Summary of the method: as §1

[12] = test system: NCI-H1755
Summary of the method: as §1

[13] = test system: NCI-H1915
Summary of the method: as §1

[14] = test system: NCI-H1975
Summary of the method: as §1

[15] = test system: NCI-H2023
Summary of the method: as §1

[16] = test system: NCI-H2085
Summary of the method: as §1

[17] = test system: NCI-H2126
Summary of the method: as §1

[18] = test system: NCI-H3122
Summary of the method: as §1

[19] = test system: NCI-H322M
Summary of the method: as §1

[20] = test system: NCI-H358
Summary of the method: as §1

[21] = test system: NCI-H441
Summary of the method: as §1

[22] = test system: UMC-11
Summary of the method: as §1

SMILES: Cc1sc2c(c1C)C(c1ccc(Cl)cc1)=N[C@@H](CC(=O)OC(C)(C)C)c1nnc(C)n1-2 [JQ1] + Cc1cc(Nc2cc(N3CCN(C)CC3)nc(Sc3ccc(NC(=O)C4CC4)cc3)n2)n[nH]1 [Tozasertib] (partner 0.1 µM)
- relative viability ([1]; first compound 0.04 µM): 0.187
- relative viability ([1]; first compound 0.1265 µM): 0.18
- relative viability ([1]; first compound 0.4 µM): 0.196
- relative viability ([1]; first compound 1.265 µM): 0.175
- relative viability ([1]; first compound 4 µM): 0.179
- relative viability ([2]; first compound 0.04 µM): 0.274
- relative viability ([2]; first compound 0.1265 µM): 0.238
- relative viability ([2]; first compound 0.4 µM): 0.24
- relative viability ([2]; first compound 1.265 µM): 0.132
- relative viability ([2]; first compound 4 µM): 0.122
- relative viability ([3]; first compound 0.04 µM): 0.359
- relative viability ([3]; first compound 0.1265 µM): 0.315
- relative viability ([3]; first compound 0.4 µM): 0.297
- relative viability ([3]; first compound 1.265 µM): 0.235
- relative viability ([3]; first compound 4 µM): 0.112
- relative viability ([4]; first compound 0.04 µM): 0.205
- relative viability ([4]; first compound 0.1265 µM): 0.224
- relative viability ([4]; first compound 0.4 µM): 0.168
- relative viability ([4]; first compound 1.265 µM): 0.158
- relative viability ([4]; first compound 4 µM): 0.164
- relative viability ([5]; first compound 0.04 µM): 0.248
- relative viability ([5]; first compound 0.1265 µM): 0.235
- relative viability ([5]; first compound 0.4 µM): 0.221
- relative viability ([5]; first compound 1.265 µM): 0.174
- relative viability ([5]; first compound 4 µM): 0.174
- relative viability ([6]; first compound 0.04 µM): 0.418
- relative viability ([6]; first compound 0.1265 µM): 0.24
- relative viability ([6]; first compound 0.4 µM): 0.373
- relative viability ([6]; first compound 1.265 µM): 0.257
- relative viability ([6]; first compound 4 µM): 0.258
- relative viability ([7]; first compound 0.04 µM): 0.417
- relative viability ([7]; first compound 0.4 µM): 0.314
- relative viability ([7]; first compound 1.265 µM): 0.119
- relative viability ([7]; first compound 4 µM): 0.0896
- relative viability ([8]; first compound 0.04 µM): 0.474
- relative viability ([8]; first compound 0.1265 µM): 0.389
- relative viability ([8]; first compound 0.4 µM): 0.4
- relative viability ([8]; first compound 1.265 µM): 0.299
- relative viability ([8]; first compound 4 µM): 0.302
- relative viability ([9]; first compound 0.04 µM): 0.361
- relative viability ([9]; first compound 0.1265 µM): 0.305
- relative viability ([9]; first compound 0.4 µM): 0.192
- relative viability ([9]; first compound 1.265 µM): 0.122
- relative viability ([9]; first compound 4 µM): 0.122
- relative viability ([10]; first compound 0.04 µM): 0.171
- relative viability ([10]; first compound 0.1265 µM): 0.134
- relative viability ([10]; first compound 0.4 µM): 0.0871
- relative viability ([10]; first compound 1.265 µM): 0.0699
- relative viability ([10]; first compound 4 µM): 0.0528
- relative viability ([11]; first compound 0.04 µM): 0.569
- relative viability ([11]; first compound 0.1265 µM): 0.534
- relative viability ([11]; first compound 0.4 µM): 0.484
- relative viability ([11]; first compound 1.265 µM): 0.36
- relative viability ([11]; first compound 4 µM): 0.354
- relative viability ([12]; first compound 0.04 µM): 0.587
- relative viability ([12]; first compound 0.1265 µM): 0.584
- relative viability ([12]; first compound 0.4 µM): 0.566
- relative viability ([12]; first compound 1.265 µM): 0.444
- relative viability ([12]; first compound 4 µM): 0.411
- relative viability ([13]; first compound 0.04 µM): 0.439
- relative viability ([13]; first compound 0.1265 µM): 0.344
- relative viability ([13]; first compound 0.4 µM): 0.325
- relative viability ([13]; first compound 1.265 µM): 0.218
- relative viability ([13]; first compound 4 µM): 0.15
- relative viability ([14]; first compound 0.04 µM): 0.75
- relative viability ([14]; first compound 0.1265 µM): 0.515
- relative viability ([14]; first compound 0.4 µM): 0.487
- relative viability ([14]; first compound 1.265 µM): 0.214
- relative viability ([14]; first compound 4 µM): 0.171
- relative viability ([15]; first compound 0.04 µM): 0.354
- relative viability ([15]; first compound 0.1265 µM): 0.308
- relative viability ([15]; first compound 0.4 µM): 0.186
- relative viability ([15]; first compound 1.265 µM): 0.1
- relative viability ([15]; first compound 4 µM): 0.0918
- relative viability ([16]; first compound 0.04 µM): 0.761
- relative viability ([16]; first compound 0.1265 µM): 0.727
- relative viability ([16]; first compound 0.4 µM): 0.63
- relative viability ([16]; first compound 1.265 µM): 0.414
- relative viability ([16]; first compound 4 µM): 0.328
- relative viability ([17]; first compound 0.04 µM): 0.8
- relative viability ([17]; first compound 0.1265 µM): 0.849
- relative viability ([17]; first compound 0.4 µM): 0.607
- relative viability ([17]; first compound 1.265 µM): 0.419
- relative viability ([17]; first compound 4 µM): 0.31
- relative viability ([18]; first compound 0.04 µM): 0.353
- relative viability ([18]; first compound 0.4 µM): 0.189
- relative viability ([18]; first compound 1.265 µM): 0.0696
- relative viability ([18]; first compound 4 µM): 0.0737
- relative viability ([19]; first compound 0.04 µM): 0.445
- relative viability ([19]; first compound 0.1265 µM): 0.443
- relative viability ([19]; first compound 0.4 µM): 0.427
- relative viability ([19]; first compound 1.265 µM): 0.362
- relative viability ([19]; first compound 4 µM): 0.375
- relative viability ([20]; first compound 0.04 µM): 0.102
- relative viability ([20]; first compound 0.1265 µM): 0.102
- relative viability ([20]; first compound 0.4 µM): 0.124
- relative viability ([20]; first compound 1.265 µM): 0.107
- relative viability ([20]; first compound 4 µM): 0.0861
- relative viability ([21]; first compound 0.04 µM): 0.629
- relative viability ([21]; first compound 0.1265 µM): 0.66
- relative viability ([21]; first compound 0.4 µM): 0.631
- relative viability ([21]; first compound 1.265 µM): 0.417
- relative viability ([21]; first compound 4 µM): 0.219
- relative viability ([22]; first compound 0.04 µM): 0.214
- relative viability ([22]; first compound 0.1265 µM): 0.192
- relative viability ([22]; first compound 0.4 µM): 0.173
- relative viability ([22]; first compound 1.265 µM): 0.175
- relative viability ([22]; first compound 4 µM): 0.162
